Reference: US5874481A, “Fluorochemical solutions for the delivery of lipophilic pharmaceutical agents” (priority 1995, dated 1999)
≈ marks a conversion by molar mass, not a printed value. Read-outs that look alike come from different tables or passages of the source.

Tests used:
[1] = Solubility in perfluorooctyl ethane (Example 6); type: physicochemical; conditions: organic solvent or mixture; saturated in n-C8F17C2H5; read-out: g/L in C8F17C2H5
Procedure: A pharmaceutical fluorochemical solution was prepared as follows:
An aliquot of n-C8 F17 C2 H5 (2 mL; F-Tech, Inc.) was saturated with "Drug" (Sigma Chemical Co.).

[2] = cited from earlier work
[3] = Effect of fluorochemical lipophilicity on pharmaceutical solubility (Example 7); type: physicochemical
Procedure: Pharmaceutical fluorochemical solutions were prepared as follows: […]

[4] = in vivo, cited from earlier work
[5] = Solubility of prednisone in fluorocarbons (Example 5); type: physicochemical; conditions: organic solvent or mixture, read-out: mg/L of prednisone in fluorochemical matrix
Procedure: A prednisone containing perfluorochemical solution was prepared as follows:
The column was a 25 cm amino column (Rainin), and the detection was carried out by a UV detector (Beckman System Gold) at the end of the column.

[6] = octanol/pH 7.4 isotonic phosphate buffer at 37° C.

For `c1ccc2cc3cc4ccccc4cc3cc2c1` [2,3 Benzanthracene], the solubility [1] is listed as 0.0003 g/L (≈ 0.00131 mM) and the “log Po/w” value ([2]; Example 6, source not stated) is listed as 5.807.

For `c1ccc2cc3ccccc3cc2c1` [Antracene], the solubility [1] is given as 0.09 g/L (≈ 0.505 mM) and the “log Po/w” value ([2]; Example 6, source not stated) is given as 4.473.

In the case of `CCCCc1ccccc1` [Butylbenzene], the solubility [1] is given as 116 g/L (≈ 862 mM) and the “log Po/w” value ([2]; Example 6, source not stated) is given as 4.

In the case of `CCCCCCc1ccccc1` [Hexylbenzene], the solubility [1] is given as 67.1 g/L (≈ 413 mM) and the “log Po/w” value ([2]; octanol/water) is given as 5.52.

With `c1ccc2ccccc2c1` [Naphthalene] the solubility [1] was 8.1 g/L (≈ 63.2 mM), the solubility ([3]; organic solvent or mixture, in C6F13C2H5, read-out: Naphthalene) was 12 mg/mL (≈ 93.6 mM) and the solubility ([3]; organic solvent or mixture, in C6F13C6H13, read-out: Naphthalene) was 30 mg/mL (≈ 234 mM). The solubility ([3]; organic solvent or mixture, in C6F13C8H17, read-out: Naphthalene) was 40 mg/mL (≈ 312 mM), the solubility ([3]; organic solvent or mixture, in C8F17C2H5, read-out: Naphthalene) was 8 mg/mL (≈ 62.4 mM) and the solubility ([3]; organic solvent or mixture, in C8F17C4H9, read-out: Naphthalene) was 14 mg/mL (≈ 109 mM). For the same compound, the solubility ([3]; organic solvent or mixture, in C8F17C6H13, read-out: Naphthalene) was 23 mg/mL (≈ 179 mM) and the “log Po/w” value ([2]; Example 6, source not stated) was 3.387.

In the case of `CC/C(=C(/CC)c1ccc(O)cc1)c1ccc(O)cc1` [^3 H -diethylstilbesterol, diethylstilbesterol], the “Octanol/water partition coefficient Po/w” value ([2]; octanol/water) is listed as 1.26 × 10^5.

For `c1ccc2cc3ccccc3cc2c1` [^14 C-anthracene, anthracene], the “Octanol/water partition coefficient Po/w” value ([2]; octanol/water) is listed as 3.16 × 10^4.

For `CCCCCCCCCCCC(=O)N1CCCCCC1` [^14 C-hexamethylene lauramide, hexamethylene lauramide], the “Log Po/w” value ([2]; octanol/water) is listed as 7.3 and the “Octanol/water partition coefficient Po/w” value ([2]; octanol/water) is listed as 2.00 × 10^7.

For `CC(=O)[C@H]1CC[C@H]2[C@@H]3CCC4=CC(=O)CC[C@]4(C)[C@H]3CC[C@]12C` [^14 C-progesterone, progesterone], the “Octanol/water partition coefficient Po/w” value ([2]; octanol/water) is given as 7.9 × 10^3.

For `CCCCN1CCCCC1C(=O)Nc1c(C)cccc1C` (stereo not shown) [bupivacaine], the “Octanol/water partition coefficient Po/w” value ([2]; octanol/water) is listed as 28.2.

For `CN(C)CCCN1c2ccccc2CCc2ccc(Cl)cc21` [clomipramine], the “Octanol/water partition coefficient Po/w” value ([2]; octanol/water, pH 7.4) is given as 3.80 × 10^3.

In the case of `CCc1cc2c(s1)N(C)C(=O)CN=C2c1ccccc1Cl` [clotiazepam], the “Log Po/w” value [2, 6] is given as 3.49 and the “Octanol/water partition coefficient Po/w” value [2, 6] is given as 3.06 × 10^3.

For `CCCCCC(=O)OCCOCn1cnc2c(=O)[nH]c(N)nc21` [hexanoyl acyclovir], the “Log Po/w” value [2, 6] is listed as 0.93.

`CCCCCCCCCCCCCCCc1cccc(O)c1` [m-Pentadecylphenol] showed a solubility [1] of 0.4 g/L (≈ 1.31 mM), a solubility ([3]; c6f13c2h5, organic solvent or mixture) of 0.7 mg/mL (≈ 2.3 mM) and a solubility ([3]; c6f13c6h13, organic solvent or mixture) of 4.1 mg/mL (≈ 13.5 mM). The solubility ([3]; c6f13c8h17, organic solvent or mixture) was 5.6 mg/mL (≈ 18.4 mM), the solubility ([3]; c8f17c2h5, organic solvent or mixture) was 0.4 mg/mL (≈ 1.31 mM) and the solubility ([3]; c8f17c4h9, organic solvent or mixture) was 0.6 mg/mL (≈ 1.97 mM). The solubility ([3]; c8f17c6h13, organic solvent or mixture) was 1.7 mg/mL (≈ 5.58 mM) and the “log Po/w” value ([2]; octanol/water) was 9.53.

`CCc1ccccc1O` [o-Ethylphenol] gave a solubility [1] of 9.4 g/L (≈ 76.9 mM).

In the case of `Cc1ccc(O)cc1` [p-Cresol], the solubility [1] is listed as 3.9 g/L (≈ 36.1 mM) and the “log Po/w” value ([2]; Example 6, source not stated) is listed as 1.9.

For `CC(=O)O[C@H]1C(=O)[C@@]2(C)[C@H]([C@H](OC(=O)c3ccccc3)[C@]3(O)C[C@H](OC(=O)[C@H](O)[C@@H](NC(=O)c4ccccc4)c4ccccc4)C(C)=C1C3(C)C)[C@]1(OC(C)=O)CO[C@@H]1C[C@@H]2O` [paclitaxel], the systemic toxicities ([4]; iv) is listed as “high systemic toxicities” and the “systemic toxicities associated with paclitaxel” value [4] is listed as “cardiac toxicity and neurotoxicity”.

In the case of `CC(C)=CCN1CCC2(C)c3cc(O)ccc3CC1C2C` (stereo not shown) [pentazocin], the “Log Po/w” value [2, 6] is listed as 2.18 and the “Octanol/water partition coefficient Po/w” value [2, 6] is listed as 150.

`C[C@]12C=CC(=O)C=C1CC[C@@H]1[C@@H]2C(=O)C[C@@]2(C)[C@H]1CC[C@]2(O)C(=O)CO` [prednisone] gave a solubility ([5]; 1,4-dibromooctafluorobutane with 10% ethanol, in 1,4-Dibromooctafluorobutane with 10% Ethyl Alcohol) of 1700 mg/L (≈ 4.74 mM), a solubility ([5]; 1,4-dibromooctafluorobutane with 50% ethanol, in 1,4-Dibromooctafluorobutane with 50% Ethyl Alcohol) of 3800 mg/L (≈ 10.6 mM) and a solubility ([5]; n-c6f13c2h5 with 3% ethanol, in n-C6F13C2H5 with 3% Ethyl Alcohol) of 27 mg/L (≈ 0.0753 mM). The solubility ([5]; n-c6f13c6h13 with 3% ethanol, in n-C6F13C6H13 with 3% Ethyl Alcohol) was 80 mg/L (≈ 0.223 mM), the solubility ([5]; n-c8f17br with 3% ethanol, in n-C8F17Br with 3% Ethyl Alcohol) was < 1 mg/L and the solubility ([5]; in 1,4-Dibromooctafluorobutane) was < 1 mg/L.

In the case of `CC(CN1c2ccccc2Sc2ccccc21)N(C)C` (stereo not shown) [promethazine], the “Log Po/w” value [2, 6] is given as 3.10 and the “Octanol/water partition coefficient Po/w” value [2, 6] is given as 1.27 × 10^3.

For `OC(CCN1CCCCC1)(c1ccccc1)C1CCCCC1` (stereo not shown) [trihexyphenidyl], the “Log Po/w” value ([2]; octanol/water, pH 7.4) is listed as 3.17 and the “Octanol/water partition coefficient Po/w” value ([2]; octanol/water, pH 7.4) is listed as 1.47 × 10^3.

For `CCCCC(=O)OCCOCn1cnc2c(=O)[nH]c(N)nc21` [valeryl acyclovir], the “Log Po/w” value [2, 6] is given as 0.30.
